Measurements from PMC11091117, “A fluorescently-tagged tick kinin neuropeptide triggers peristalsis and labels tick midgut muscles” (Scientific Reports, 2024).
Entries after “also recorded” stand apart in the source; their conditions may differ.

Test system: tick kinin receptor in midgut muscles
Test: Fluorescent labeling of live midgut ex vivo, confocal microscopy
Format: binding, Rhipicephalus sanguineus
From the text: Three peptides were used in this study. These included: 1) the ligand for the endogenous tick kinin receptor from Rhipicephalus sanguineus, Rhisa-kinin 8 peptide of sequence GTGEDQAFSPWGamide (Rhisa-K-8; RK8; of identical sequence to Rhimi-K-8 in Rhipicephalus microplus)[48], 2) the same peptide but fluorescently labeled at the N-terminus with tetramethylrhodamine (TMR) a red fluorescent dye, designated TMR-Rhisa-K-8 (TMR-RK8), and 3) a labeled peptide synthesized with the scrambled sequence of the kinin ligand, designated TMR-Scrambled. The sequence of TMR-RK8 was TMR-C-GTGEDQAFSPWGamide). The TMR-Scrambled kinin (TMR-C-GTQWGPGFEADSamide) served as a negative control for tissue labeling. All peptides were custom-synthesized and purchased from GenScript (Piscataway, NJ, USA) with a purity of ≥ 95% and the cysteine in bold in both sequences was added to attach the label. Experiments were replicated with independently synthesized batches (4 mg each) of labeled and unlabeled peptides, for reproducibility. Unlabeled RK8 was used as a competitive ligand to verify target-specific binding of the labeled TMR-RK8 (see Ligand Competition Assay). For cell assays, the peptide stock solutions (100 µM) were made in 1% dimethyl sulfoxide (DMSO) in Hank’s balanced salt solution (HBSS, Thermo Fisher, Waltham, USA). For fluorescent cell labeling, peptide working solutions (10 µM) were prepared in HBSS from stock solutions. For assays on the midgut, peptides were solubilized and diluted in a tick physiological saline consisting of 140 mM NaCl, 5 mM KCl, 1 mM MgCl2, 5 mM CaCl2, 4 mM NaHCO3, and 5 mM HEPES, pH 7.2[49].
Individual female ticks were immobilized on a Petri dish filled with wax by submerging their legs in melted wax heated with a soldering pencil (Electronic Control Soldering Station EC 1000, Weller, Apex, North Carolina, USA). Females were dissected under physiological saline following the protocol described by Tidwell et al.[51]. The tick was cut along the edge of the scutum/alloscutum using a stainless steel #12 scalpel blade (Integra Miltex, York, PA, USA), after which the scutum was removed with a pair of fine forceps. To expose the midgut for removal, the tracheae, Malpighian tubules, ovaries, rectal sac, and synganglion were removed with fine forceps in that order. The midgut was then carefully removed and placed into 200 µL of fresh tick saline (See Reagents and Peptides) on a single gasketed incubation chamber (500 µL, Size 22 × 40 mm, Electron Microscopy Sciences, Hatfield, PA). The midguts were then rinsed three times with the physiological tick saline for subsequent fluorescent labeling or activity experiments.
To determine the location of the tick kinin receptor in the midgut of ticks, a commercially synthesized Rhisa-kinin peptide 8[52] conjugated with a stable, red fluorophore (TMR-RK8) or a similarly labeled peptide of scrambled sequence (TMR-Scrambled) were applied to freshly dissected midguts ex vivo. For this, midguts of unfed adult females were incubated in ice-cold saline for 10 min. The saline was removed before incubation in 200 µL of 4’,6-diamidino-2-phenylindole dihydrochloride (DAPI, Sigma, 1 µg/mL in saline) for 1 min and rinsed with saline (200 µL) once. After saline removal, the midgut was incubated for 1 min with 200 µL of 10 µM of either TMR-Scrambled kinin or TMR-RK8, then the labeled peptide solution was removed by pipette and the midgut was rinsed twice with 200 µL saline. […]

TMR-C-GTGEDQAFSPWGamide [TMR-RK8]
displacement of TMR-RK8 label by phalloidin (in words) (10 µM TMR-RK8, Alexa Fluor 488 Phalloidin 15 min, midgut muscle fibers): no observed phalloidin displacement of the TMR-RK8 label | non-specific labeling below midgut surface (in words) (10 µM labeled peptide, 1 min, midguts ex vivo, Z-slices under the surface): aggregation of TMR-RK8 signal in what appears to be lipid vesicles; also recorded: non-specific labeling observed in lipid vesicles inside the midgut | labeling of midgut surface muscles (in words) (10 µM labeled peptide, 1 min, tick saline pH 7.2, midguts of unfed females ex vivo, DAPI and Alexa 488-phalloidin, confocal 20X/40X): labeled the kinin receptor in muscles; also recorded: localized the kinin receptor to both circular and longitudinal muscles; also recorded: signal was observed in the tick midgut muscles under confocal microscopy; also recorded: observed only on the surface of the midgut; also recorded: binding specifically to the circular (white arrowheads) and longitudinal (white arrows) muscles
